Test [1] concerns inflammatory vitreous opacity due to endotoxin-induced uveitis. As to the kind of experiment: Endotoxin-induced uveitis (EIU) rabbit model: clinical grading of inflammatory vitreous opacity after DEX injection into the choroid through a tube. To be noted: day 2 after intravitreal LPS 100 ng; DEX solution 100 μg/100 μL injected into the choroid through the tube; 4 eyes; p<0.05 vs control (LPS only). The test is classed as in vivo. How it is done: (§1) In order to investigate the effectiveness of the method for self-treatment of posterior segment eye disease according to an aspect of the present invention, whether the injection of dexamethasone (DEX) into the choroid through a tube suppresses inflammatory vitreous opacity due to endotoxin-induced uveitis was examined in a rabbit model.
All experiments were conducted in accordance with ARVO Statement for the Use of Animals in Ophthalmic and Vision Research and the Guidelines for Experimental Animals at Iwate Medical University. Three-month-old Japanese white rabbits (purchased from KITAYAMALABES CO., LTD.) weighing 2 to 2.5 kg were used. […]
After the tube insertion, endotoxin-induced uveitis (HU) was induced in 8 rabbits (8 eyes) by lipopolysaccharide (LPS) derived from Escherichia coli (manufactured by Sigma-Aldrich Co. LLC). […] Since maximal inflammatory symptoms were seen 2 days after injection, inflammatory vitreous opacity was evaluated 2 days after injection by ophthalmological observation and vitreous humor protein measurement. The amount of DEX injected was entered into the application and the amount of DEX was determined on the computer. The data on the quantity of DEX was then transmitted to a wireless injector (“Tofuty”, manufactured by ICOMES LAB Co., Ltd.). […]

The test system is the same in test [2]. As to the kind of experiment: Endotoxin-induced uveitis (EIU) rabbit model: vitreous humor protein measurement. The test is classed as in vivo. To be noted: day 2 after intravitreal LPS 100 ng; DEX solution 100 μg/100 μL injected into the choroid through the tube; 4 eyes; p<0.05 vs control (LPS only).
Description: as §1
After the tube insertion, endotoxin-induced uveitis (HU) was induced in 8 rabbits (8 eyes) by lipopolysaccharide (LPS) derived from Escherichia coli (manufactured by Sigma-Aldrich Co. LLC). 100 ng of LPS solution was injected into the vitreous body using a 27G needle at a 12 o'clock position, 3 mm posterior to the corneal limbus. […] Since maximal inflammatory symptoms were seen 2 days after injection, inflammatory vitreous opacity was evaluated 2 days after injection by ophthalmological observation and vitreous humor protein measurement. The amount of DEX injected was entered into the application and the amount of DEX was determined on the computer. The data on the quantity of DEX was then transmitted to a wireless injector (“Tofuty”, manufactured by ICOMES LAB Co., Ltd.). […]
For protein measurements, four eyes in each group were used on day 2 after procedure. […] The protein content of vitreous humor was determined using a Bio-Rad assay kit with bovine serum albumin as a standard-dilution reference curve. […]

For `C[C@@H]1C[C@H]2[C@@H]3CCC4=CC(=O)C=C[C@]4(C)[C@@]3(F)[C@@H](O)C[C@]2(C)[C@@]1(O)C(=O)CO` [DEX, dexamethasone], the “Clinical grading of vitreous opacity (grade 0 to 4)” value in test [1] stood at 0.75±0.96. Besides, the “Protein concentration in vitreous humor” value in test [2] is 20.5 ± 15.0 mg/mL.

The values above are taken from patent US20240023806A1, “METHOD FOR SELF-DIAGNOSIS AND METHOD FOR SELF-TREATMENT OF POSTERIOR SEGMENT EYE DISEASE” (priority 2022, published 2024).
